# From ChEMBL document CHEMBL3885881, “DrugMatrix”
# Species on record: Rattus norvegicus
# Assay: DrugMatrix - Regimen: Daily Repeat
# Format: toxicity, organism-based, Sprague-Dawley
# Set-up: regimen Daily Repeat, gender Male, age 6-8 weeks
# Settings: in vivo, po, route oral GAVAGE, vehicle .5 % CMC; for ABSOLUTE BASOPHIL / ABSOLUTE EOSINOPHIL / ABSOLUTE LYMPHOCYTE / ABSOLUTE MONOCYTE / ABSOLUTE SEGMENTED NEUTROPHIL / BASOPHIL / EOSINOPHIL / ERYTHROCYTE COUNT / HEMATOCRIT / HEMOGLOBIN / LEUKOCYTE COUNT / LYMPHOCYTE / MEAN CORPUSCULAR HEMOGLOBIN / MEAN CORPUSCULAR HEMOGLOBIN CONCENTRATION / MEAN CORPUSCULAR VOLUME / MONOCYTE / NEUTROPHIL / NUCLEATED RED BLOOD CELLS / PLATELET COUNT: tissue Blood; for ALANINE AMINOTRANSFERASE / ALBUMIN / ALKALINE PHOSPHATASE / ASPARTATE AMINOTRANSFERASE / BLOOD UREA NITROGEN / CARBON DIOXIDE / CHLORIDE / CHOLESTEROL / CREATINE PHOSPHOKINASE / CREATININE / GLUCOSE / LACTATE DEHYDROGENASE / LIPASE / PHOSPHORUS / POTASSIUM / SODIUM / TOTAL BILIRUBIN / TOTAL PROTEIN / URIC ACID: tissue Plasma
# [1] = 75 mg/kg, 120 h, dose level High, time 5 day
# [2] = […], 72 h, dose 7.5 mg/Kg, dose level Low, time 3 day
# [3] = […], 120 h, dose 7.5 mg/Kg, dose level Low, time 5 day
smiles,measurement,setting,value
Cc1ccc(/N=C/N(C)/C=N/c2ccc(C)cc2C)c(C)c1 [AMITRAZ],ABSOLUTE BASOPHIL,[1],0 CELLS/uL
same,ABSOLUTE EOSINOPHIL,[1],78.67 CELLS/uL
same,ABSOLUTE LYMPHOCYTE,[1],10570.33 CELLS/uL
same,ABSOLUTE MONOCYTE,[1],41.33 CELLS/uL
same,ABSOLUTE SEGMENTED NEUTROPHIL,[1],1409.67 CELLS/uL
same,BASOPHIL,[1],0%
same,EOSINOPHIL,[1],0.67%
same,ERYTHROCYTE COUNT,[1],6.55 x10E6/uL
same,HEMATOCRIT,[1],40.27%
same,HEMOGLOBIN,[1],16.2 G/DL
same,LEUKOCYTE COUNT,[1],12.1 x10E3/uL
same,LYMPHOCYTE,[1],87.33%
same,MEAN CORPUSCULAR HEMOGLOBIN,[1],24.73 pg
same,MEAN CORPUSCULAR HEMOGLOBIN CONCENTRATION,[1],40.2 G/DL
same,MEAN CORPUSCULAR VOLUME,[1],61.53 fL
same,MONOCYTE,[1],0.33%
same,NEUTROPHIL,[1],11.67%
same,NUCLEATED RED BLOOD CELLS,[1],0 /100WBC
same,PLATELET COUNT,[1],1330 x10E3/uL
same,ALANINE AMINOTRANSFERASE,[1],42.33 u/L
same,ALBUMIN,[1],4.3 G/DL
same,ALKALINE PHOSPHATASE,[1],203.33 u/L
same,ASPARTATE AMINOTRANSFERASE,[1],91.33 u/L
same,BLOOD UREA NITROGEN,[1],18.67 mg/dL
same,CARBON DIOXIDE,[1],21.67 mmol/L
same,CHLORIDE,[1],104.33 MEQ/L
same,CHOLESTEROL,[1],74 mg/dL
same,CREATINE PHOSPHOKINASE,[1],460.67 u/L
same,CREATININE,[1],0.26 mg/dL
same,GLUCOSE,[1],172 mg/dL
same,LACTATE DEHYDROGENASE,[1],250.67 u/L
same,LIPASE,[1],11.67 u/L
same,PHOSPHORUS,[1],15.2 mg/dL
same,POTASSIUM,[1],7.47 MEQ/L
same,SODIUM,[1],148.4 MEQ/L
same,TOTAL BILIRUBIN,[1],0.2 mg/dL
same,TOTAL PROTEIN,[1],6.17 G/DL
same,URIC ACID,[1],2.83 mg/dL
same,ABSOLUTE BASOPHIL,[2],0 CELLS/uL
same,ABSOLUTE EOSINOPHIL,[2],136 CELLS/uL
same,ABSOLUTE LYMPHOCYTE,[2],19510 CELLS/uL
same,ABSOLUTE MONOCYTE,[2],209.33 CELLS/uL
same,ABSOLUTE SEGMENTED NEUTROPHIL,[2],1444.67 CELLS/uL
same,BASOPHIL,[2],0%
same,EOSINOPHIL,[2],0.67%
same,ERYTHROCYTE COUNT,[2],5.3 x10E6/uL
same,HEMATOCRIT,[2],33.37%
same,HEMOGLOBIN,[2],13.33 G/DL
same,LEUKOCYTE COUNT,[2],21.3 x10E3/uL
same,LYMPHOCYTE,[2],91.33%
same,MEAN CORPUSCULAR HEMOGLOBIN,[2],25.17 pg
same,MEAN CORPUSCULAR HEMOGLOBIN CONCENTRATION,[2],39.97 G/DL
same,MEAN CORPUSCULAR VOLUME,[2],63.07 fL
same,MONOCYTE,[2],1%
same,NEUTROPHIL,[2],7%
same,NUCLEATED RED BLOOD CELLS,[2],0.33 /100WBC
same,PLATELET COUNT,[2],1400.67 x10E3/uL
same,ALANINE AMINOTRANSFERASE,[2],46.33 u/L
same,ALBUMIN,[2],4.13 G/DL
same,ALKALINE PHOSPHATASE,[2],272 u/L
same,ASPARTATE AMINOTRANSFERASE,[2],87.67 u/L
same,BLOOD UREA NITROGEN,[2],17.33 mg/dL
same,CARBON DIOXIDE,[2],25.33 mmol/L
same,CHLORIDE,[2],103.33 MEQ/L
same,CHOLESTEROL,[2],75.67 mg/dL
same,CREATINE PHOSPHOKINASE,[2],199.33 u/L
same,CREATININE,[2],0.22 mg/dL
same,GLUCOSE,[2],185.67 mg/dL
same,LACTATE DEHYDROGENASE,[2],127 u/L
same,LIPASE,[2],8.67 u/L
same,PHOSPHORUS,[2],11.97 mg/dL
same,POTASSIUM,[2],6.06 MEQ/L
same,SODIUM,[2],144.17 MEQ/L
same,TOTAL BILIRUBIN,[2],0.23 mg/dL
same,TOTAL PROTEIN,[2],5.7 G/DL
same,URIC ACID,[2],2.07 mg/dL
same,ABSOLUTE BASOPHIL,[3],0 CELLS/uL
same,ABSOLUTE EOSINOPHIL,[3],0 CELLS/uL
same,ABSOLUTE LYMPHOCYTE,[3],13348 CELLS/uL
same,ABSOLUTE MONOCYTE,[3],98 CELLS/uL
same,ABSOLUTE SEGMENTED NEUTROPHIL,[3],1187.33 CELLS/uL
same,BASOPHIL,[3],0%
same,EOSINOPHIL,[3],0%
same,ERYTHROCYTE COUNT,[3],5.41 x10E6/uL
same,HEMATOCRIT,[3],34.03%
same,HEMOGLOBIN,[3],13.6 G/DL
same,LEUKOCYTE COUNT,[3],14.63 x10E3/uL
same,LYMPHOCYTE,[3],91.33%
same,MEAN CORPUSCULAR HEMOGLOBIN,[3],25.17 pg
same,MEAN CORPUSCULAR HEMOGLOBIN CONCENTRATION,[3],39.93 G/DL
same,MEAN CORPUSCULAR VOLUME,[3],63.03 fL
same,MONOCYTE,[3],0.67%
same,NEUTROPHIL,[3],8%
same,NUCLEATED RED BLOOD CELLS,[3],0.33 /100WBC
same,PLATELET COUNT,[3],1467.33 x10E3/uL
same,ALANINE AMINOTRANSFERASE,[3],52.67 u/L
same,ALBUMIN,[3],4.13 G/DL
same,ALKALINE PHOSPHATASE,[3],370.67 u/L
same,ASPARTATE AMINOTRANSFERASE,[3],78.67 u/L
same,BLOOD UREA NITROGEN,[3],18 mg/dL
same,CARBON DIOXIDE,[3],30.67 mmol/L
same,CHLORIDE,[3],99.67 MEQ/L
same,CHOLESTEROL,[3],63 mg/dL
same,CREATINE PHOSPHOKINASE,[3],265.67 u/L
same,CREATININE,[3],0.18 mg/dL
same,GLUCOSE,[3],137.33 mg/dL
same,LACTATE DEHYDROGENASE,[3],130 u/L
same,LIPASE,[3],9 u/L
same,PHOSPHORUS,[3],11.77 mg/dL
same,POTASSIUM,[3],6.67 MEQ/L
same,SODIUM,[3],143.1 MEQ/L
same,TOTAL BILIRUBIN,[3],0.2 mg/dL
same,TOTAL PROTEIN,[3],5.9 G/DL
same,URIC ACID,[3],1.83 mg/dL
